The values that follow come from ChEMBL document CHEMBL4219114, “Aralkyl selenoglycosides and related selenosugars in acetylated form activate protein phosphatase-1 and -2A” (Bioorg Med Chem, 2018).

Data set [1] is described as follows: Inhibition of rabbit skeletal muscle PP1 catalytic subunit at 19 to 395 uM using [32P]MLC20 as substrate pretreated for 10 mins followed by substrate addition measured after 10 mins by scintillation counting method. Details: species or system Oryctolagus cuniculus.
A short description of data set [2]: Inhibition of rabbit skeletal muscle PP2A catalytic subunit at 19 to 395 uM using [32P]MLC20 as substrate pretreated for 10 mins followed by substrate addition measured after 10 mins by scintillation counting method relative to control. Details: species or system Oryctolagus cuniculus.
Data set [3] is filed under the species Oryctolagus cuniculus. Kind of data set: Activation of rabbit skeletal muscle PP2A catalytic subunit at 19 to 395 uM using [32P]MLC20 as substrate pretreated for 10 mins followed by substrate addition measured after 10 mins by scintillation counting method relative to control.
For data set [4], the species on record is Oryctolagus cuniculus. Kind of data set: Activation of rabbit skeletal muscle PP1 catalytic subunit at 19 to 395 uM using [32P]MLC20 as substrate pretreated for 10 mins followed by substrate addition measured after 10 mins by scintillation counting method relative to control.
Data set [5] can be described thus: Activation of rabbit skeletal muscle PP1 catalytic subunit using [32P]MLC20 as substrate pretreated for 10 mins followed by substrate addition measured after 10 mins by scintillation counting method relative to control. More on the design: species or system Oryctolagus cuniculus.
Data set [6] is described as follows: Activation of rabbit skeletal muscle PP2A catalytic subunit using [32P]MLC20 as substrate pretreated for 10 mins followed by substrate addition measured after 10 mins by scintillation counting method relative to control. More on the design: species or system Oryctolagus cuniculus.
Data set [7] has as its system HeLa. As to the kind of experiment: Activation of PP1 catalytic subunit/PP2A catalytic subunit in human HeLa cells using [32P]MLC20 as substrate pretreated for 1 hr followed by substrate addition measured after 30 secs by scintillation counting method. The class given is cell-based.
The test system of data set [8] is HeLa. As to the kind of experiment: Cytotoxicity against human HeLa cells assessed as reduction in cell viability at >200 uM after 24 hrs by Alamar blue assay. The format is functional, cell-based.
Data set [9] concerns HeLa. Kind of data set: Activation of PP1 catalytic subunit/PP2A catalytic subunit in human HeLa cells at >100 uM using [32P]MLC20 as substrate pretreated for 1 hr followed by substrate addition measured after 30 secs by scintillation counting method. The class given is cell-based.
The species entered for data set [10] is Oryctolagus cuniculus. As to the kind of experiment: Activation of rabbit skeletal muscle PP1 catalytic subunit at 395 uM using [32P]MLC20 as substrate pretreated for 10 mins followed by substrate addition measured after 10 mins in presence of 10 to 25 uM MYPT1 (23 to 38 residues) peptide by scintillation counting method.
The species named for data set [11] is Oryctolagus cuniculus. Kind of data set: Activation of rabbit skeletal muscle PP2A catalytic subunit at 395 uM using [32P]MLC20 as substrate pretreated for 10 mins followed by substrate addition measured after 10 mins in presence of 10 uM MYPT1 (23 to 38 residues) peptide by scintillation counting method relative to control.
For data set [12], the target named is Serine/threonine-protein phosphatase PP1-beta catalytic subunit (Homo sapiens) (UniProt P62140). Kind of data set: Binding affinity to full length recombinant human N-terminal His6-tagged PP1cdelta expressed in Escherichia coli M15 assessed as inhibition of protein interaction with GST-tagged MYPT1 at 10 to 50 uM by surface plasmon resonance method. For orientation: In SPR one partner is held on a chip, and binding of the other changes the refractive index at the surface.

Data set [13] concerns HeLa. As to the kind of experiment: Activation of PP1 catalytic subunit/PP2A catalytic subunit in human HeLa cells at 395 uM using [32P]MLC20 as substrate pretreated for 1 hr followed by substrate addition measured after 30 secs by scintillation counting method. The class given is cell-based.

Calls of active or inactive are those of the source. The calls are words filed in the database; no cut-off is given here.

Chain of Serine/threonine-protein phosphatase PP1-beta catalytic subunit (Homo sapiens) (P62140 whole entry): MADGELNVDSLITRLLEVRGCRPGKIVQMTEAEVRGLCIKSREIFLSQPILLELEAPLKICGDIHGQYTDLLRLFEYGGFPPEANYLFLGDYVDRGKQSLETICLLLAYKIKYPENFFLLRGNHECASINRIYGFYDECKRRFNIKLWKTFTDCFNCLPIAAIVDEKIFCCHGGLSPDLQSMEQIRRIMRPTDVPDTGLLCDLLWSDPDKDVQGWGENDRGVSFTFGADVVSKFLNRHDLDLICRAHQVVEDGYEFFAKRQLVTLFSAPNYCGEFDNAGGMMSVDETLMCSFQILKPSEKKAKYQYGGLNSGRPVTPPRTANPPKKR

For the compound `CC(=O)OC[C@H]1O[C@@H]([Se]C(=O)c2ccc(Cl)cc2)[C@H](OC(C)=O)[C@@H](OC(C)=O)[C@@H]1OC(C)=O`, the “inhibition (INH)” value in data set [1] and in data set [2] was “Active” each time. Moreover, the outcome in the data set listed under Oryctolagus cuniculus [3] and in the data set listed under Oryctolagus cuniculus [4] was Active.

In the case of `COc1ccc(C[Se][C@@H]2O[C@H](COC(C)=O)[C@@H](OC(C)=O)[C@H](OC(C)=O)[C@H]2OC(C)=O)cc1`, the result in the data set filed under Oryctolagus cuniculus [3] and in the data set listed under Oryctolagus cuniculus [4] was Active. In addition, the EC50 (usually the concentration needed to bring the measured effect to its halfway point) came out at 222 µM in [5] and 119 µM in data set [6].

For the compound `OC[C@H]1O[C@@H]([Se]Cc2ccccc2C(F)(F)F)[C@H](O)[C@@H](O)[C@@H]1O`, the result in the data set listed under Oryctolagus cuniculus [3], in the data set with HeLa [7] and in the data set filed under Oryctolagus cuniculus [4] was inactive. For the same compound, in the data set with HeLa [8], the result was Active.

As for `CC(=O)OC[C@H]1O[C@@H]([Se]C(=O)c2ccccc2)[C@H](OC(C)=O)[C@@H](OC(C)=O)[C@@H]1OC(C)=O`, the “inhibition (INH)” value in data set [1] and in data set [2] was “Active” throughout. Also, the outcome in the data set filed under Oryctolagus cuniculus [3] was inactive. In addition, in the data set filed under Oryctolagus cuniculus [4], the fold change (FC) worked out at 2.

Take `CC(=O)OC[C@H]1O[C@@H]([Se]Cc2ccccc2C(F)(F)F)[C@H](OC(C)=O)[C@@H](OC(C)=O)[C@@H]1OC(C)=O`: the outcome (in the data set on HeLa [9]; in the data set filed under Oryctolagus cuniculus [11]; in the data set filed under Oryctolagus cuniculus [3]; in [12]; in the data set with HeLa [8]; in the data set listed under Oryctolagus cuniculus [4]) was Active. The result in the data set filed under Oryctolagus cuniculus [10] was inactive. In addition, the EC50 came out at 233 µM in [5] and 83.5 µM in [6].

Regarding `CC(=O)OC[C@H]1O[C@@H]([Se]Cc2ccc(Br)cc2)[C@H](OC(C)=O)[C@@H](OC(C)=O)[C@@H]1OC(C)=O`, the outcome (in the data set with HeLa [13]; in the data set filed under Oryctolagus cuniculus [11]; in the data set filed under Oryctolagus cuniculus [3]; in [12]; in the data set filed under Oryctolagus cuniculus [4]) was Active. Further, the result in the data set listed under Oryctolagus cuniculus [10] was inactive. The concentration for a half-maximal effect (EC50) came to 108 µM in data set [5] and 119 µM in data set [6].

With `CC(=O)OC[C@H]1O[C@@H]([Se]C(=O)c2ccc(C)cc2)[C@H](OC(C)=O)[C@@H](OC(C)=O)[C@@H]1OC(C)=O`, the “inhibition (INH)” value in data set [1] and in data set [2] was “Active” in each case. The result in the data set listed under Oryctolagus cuniculus [3] and in the data set filed under Oryctolagus cuniculus [4] was Active.

In the case of `CC(=O)OC[C@H]1O[C@@H]([Se]Cc2ccc([N+](=O)[O-])cc2)[C@H](OC(C)=O)[C@@H](OC(C)=O)[C@@H]1OC(C)=O`, the “inhibition (INH)” value in data set [1] is recorded as “Active”. For the same compound, the result in the data set filed under Oryctolagus cuniculus [3] and in the data set listed under Oryctolagus cuniculus [4] was inactive.

With `CC(=O)OC[C@H]1O[C@@H]([Se]c2ccc([N+](=O)[O-])cc2[N+](=O)[O-])[C@H](OC(C)=O)[C@@H](OC(C)=O)[C@@H]1OC(C)=O`, the “inhibition (INH)” value in data set [1] and in data set [2] was “Active” in each case. Also, the result in the data set listed under Oryctolagus cuniculus [3] and in the data set filed under Oryctolagus cuniculus [4] was inactive.

Take `OC[C@H]1O[C@@H]([Se]Cc2ccccc2)[C@H](O)[C@@H](O)[C@@H]1O`: the result in the data set filed under Oryctolagus cuniculus [3], in the data set on HeLa [7] and in the data set filed under Oryctolagus cuniculus [4] was inactive. The outcome in the data set with HeLa [8] was Active.

For `CC(=O)OC[C@H]1O[C@@H]([Se]c2ccc([N+](=O)[O-])cn2)[C@H](OC(C)=O)[C@@H](OC(C)=O)[C@@H]1OC(C)=O`, the “inhibition (INH)” value in [1] and in [2] was “Active” in each case. The result in the data set filed under Oryctolagus cuniculus [3] and in the data set filed under Oryctolagus cuniculus [4] was inactive.

On to `CC(=O)OC[C@H]1O[C@@H]([Se]Cc2ccccc2)[C@H](OC(C)=O)[C@@H](OC(C)=O)[C@@H]1OC(C)=O`, for which the outcome in the data set listed under Oryctolagus cuniculus [3], in the data set with HeLa [8] and in the data set listed under Oryctolagus cuniculus [4] was Active.

Regarding `CC(=O)N[C@@H]1[C@@H](OC(C)=O)[C@H](OC(C)=O)[C@@H](COC(C)=O)O[C@H]1[Se]C(=O)c1ccc(C)cc1`, the “inhibition (INH)” value in data set [1] and in data set [2] was “Active” throughout. Besides, the outcome in the data set filed under Oryctolagus cuniculus [3] and in the data set filed under Oryctolagus cuniculus [4] was Active.

On to `CC(=O)OC[C@H]1O[C@@H]([Se]CCc2ccccc2)[C@H](OC(C)=O)[C@@H](OC(C)=O)[C@@H]1OC(C)=O`, for which the fold change (FC) in the data set filed under Oryctolagus cuniculus [3] and in the data set listed under Oryctolagus cuniculus [4] was 4 each time. For the same compound, the results for the EC50 in data set [5] and in data set [6] were 171 µM and 104 µM, respectively.

With `CC(=O)OC[C@H]1O[C@@H]([Se]c2ccccc2)[C@H](OC(C)=O)[C@@H](OC(C)=O)[C@@H]1OC(C)=O`, the fold change (FC) in the data set listed under Oryctolagus cuniculus [3] and in the data set filed under Oryctolagus cuniculus [4] was 4 in each case. Also, the EC50 in data set [5] was 291 µM; in data set [6] it was 84.8 µM.

Take `CC(=O)N[C@@H]1[C@@H](OC(C)=O)[C@H](OC(C)=O)[C@@H](COC(C)=O)O[C@H]1[Se]c1ccc([N+](=O)[O-])cn1`: the “inhibition (INH)” value in [1] and in data set [2] was “Active” each time. Also, the result in the data set filed under Oryctolagus cuniculus [3] and in the data set listed under Oryctolagus cuniculus [4] was inactive.
